Measured values taken from patent US6355799B1, “Substituted benzene compounds, process for their preparation, and herbicidal and defoliant compositions containing them” (ISK Americas Incorporated, priority 1997, dated 2002).

What was measured:
Format in all cases: in vivo
[1] = test system: barnyardgrass (Echinochloa crus-galli, ECHCG); experiment: Post-emerge test, greenhouse herbicide activity screening; conditions: post-emerge, 14 days after application, rating scale 0-100
Procedure, shortened: (§1)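 Compounds in acetone were track-sprayed at 15-1000 g ai/ha (187 l/ha) on sandy loam pots: pre-emerge one day after seeding, post-emerge at 2-3 leaf stage with 0.25% v/v non-ionic surfactant. Phytotoxicity was rated 14 days later on a 0 (no damage) to 100 (complete death) scale.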

[2] = test system: redroot pigweed (Amaranthus retroflexus, AMARE); experiment: as above; conditions: post-emerge, 14 days after application, rating scale 0-100
Procedure, shortened: as §1

[3] = test system: large crabgrass (Digitaria sanguinalis, DIGSA); experiment: as above; conditions: post-emerge, 14 days after application, rating scale 0-100
Procedure, shortened: as §1

[4] = test system: velvetleaf (Abutilon theophrasti, ABUTH); experiment: as above; conditions: post-emerge, 14 days after application, rating scale 0-100
Procedure, shortened: as §1

[5] = test system: sicklepod (Cassia obtusifolia, CASOB); experiment: as above; conditions: post-emerge, 14 days after application, rating scale 0-100
Procedure, shortened: as §1

[6] = test system: ivyleaf morningglory (Ipomoea hederacea, IPOHE); experiment: as above; conditions: post-emerge, 14 days after application, rating scale 0-100
Procedure, shortened: as §1

[7] = test system: lambsquarters (Chenopodium album, CHEAL); experiment: as above; conditions: post-emerge, 14 days after application, rating scale 0-100
Procedure, shortened: as §1

[8] = test system: johnsongrass (Sorghum halepense, SORHA); experiment: as above; conditions: post-emerge, 14 days after application, rating scale 0-100
Procedure, shortened: as §1

[9] = test system: green foxtail (Setaria viridis, SETVI); experiment: as above; conditions: post-emerge, 14 days after application, rating scale 0-100
Procedure, shortened: as §1

[10] = test system: barnyardgrass (Echinochloa crus-galli, ECHCG); experiment: Pre-emerge test, greenhouse herbicide activity screening; conditions: pre-emerge, 14 days after application, scale 0-100
Procedure, shortened: (§2)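 Compounds in acetone were track-sprayed at 187 l/ha, 15–1000 g ai/ha, onto sandy loam pots. Pre-emerge seeds were sown one day before spraying, with surface watering afterwards. Post-emerge plants were at the 2–3 leaf stage and sprayed with 0.25% v/v non-ionic surfactant. Injury was rated 0–100 at 14 days.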

[11] = test system: large crabgrass (Digitaria sanguinalis, DIGSA); experiment: as above; conditions: pre-emerge, 14 days after application, scale 0-100
Procedure, shortened: as §2

[12] = test system: velvetleaf (Abutilon theophrasti, ABUTH); experiment: as above; conditions: pre-emerge, 14 days after application, scale 0-100
Procedure, shortened: as §2

[13] = test system: sicklepod (Cassia obtusifolia, CASOB); experiment: as above; conditions: pre-emerge, 14 days after application, scale 0-100
Procedure, shortened: as §2

[14] = test system: ivyleaf morningglory (Ipomoea hederacea, IPOHE); experiment: as above; conditions: pre-emerge, 14 days after application, scale 0-100
Procedure, shortened: as §2

[15] = test system: lambsquarters (Chenopodium album, CHEAL); experiment: as above; conditions: pre-emerge, 14 days after application, scale 0-100
Procedure, shortened: as §2

[16] = test system: johnsongrass (Sorghum halepense, SORHA); experiment: as above; conditions: pre-emerge, 14 days after application, scale 0-100
Procedure, shortened: as §2

[17] = test system: green foxtail (Setaria viridis, SETVI); experiment: as above; conditions: pre-emerge, 14 days after application, scale 0-100
Procedure, shortened: as §2

[18] = test system: upland rice (Oryza sp., var. Tebonnet, RICE); experiment: Post-emerge test, crop safety; conditions: post-emerge, 14 days after application, rating scale 0-100
Procedure, shortened: as §2

[19] = test system: field corn (Zea mays L., var. Dekalb 535, CORN); experiment: Post-emerge test, crop safety; conditions: post-emerge, 14 days after application, rating scale 0-100
Procedure, shortened: as §2

[20] = test system: redroot pigweed (Amaranthus retroflexus, AMARE); experiment: Pre-emerge test, greenhouse herbicide activity screening; conditions: pre-emerge, 14 days after application, scale 0-100
Procedure, shortened: as §1

[21] = test system: upland rice (Oryza sp., var. Tebonnet, RICE); experiment: Pre-emerge test, crop safety; conditions: pre-emerge, 14 days after application, scale 0-100
Procedure, shortened: (§3)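 Sandy loam pots; pre-emerge: sown 1 d pre-spray, surface-watered after, then bottom-watered. Post-emerge: sown 8–21 d before, 2–3 leaf stage, + 0.25% v/v NIS, bottom-watered. Acetone, 187 l/ha track spray, 15–1000 g ai/ha. 0–100 injury score, day 14.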

[22] = test system: field corn (Zea mays L., var. Dekalb 535, CORN); experiment: Pre-emerge test, crop safety; conditions: pre-emerge, 14 days after application, scale 0-100
Procedure, shortened: as §3

## COc1c(Cl)cc(F)c(-n2c(=O)cc(C(F)(F)F)n(C)c2=O)c1NC(=O)c1ccc2ccccc2c1OC [2-153]
[1]; 63 g ai/ha
  ECHCG phytotoxicity rating: 10
[1]; 250 g ai/ha
  ECHCG phytotoxicity rating: 20
[2]; 63 g ai/ha
  AMARE phytotoxicity rating: 60
[2]; 250 g ai/ha
  AMARE phytotoxicity rating: 90
[3]; 63 g ai/ha
  DIGSA phytotoxicity rating: 0
[3]; 250 g ai/ha
  DIGSA phytotoxicity rating: 10
[4]; 63 g ai/ha
  ABUTH phytotoxicity rating: 95
[4]; 250 g ai/ha
  ABUTH phytotoxicity rating: 100
[5]; 63 g ai/ha
  CASOB phytotoxicity rating: 0
[5]; 250 g ai/ha
  CASOB phytotoxicity rating: 30
[6]; 63 g ai/ha
  IPOHE phytotoxicity rating: 100
[6]; 250 g ai/ha
  IPOHE phytotoxicity rating: 95
[7]; 63 g ai/ha
  CHEAL phytotoxicity rating: 80
[7]; 250 g ai/ha
  CHEAL phytotoxicity rating: 95
[8]; 63 g ai/ha
  SORHA phytotoxicity rating: 0
[8]; 250 g ai/ha
  SORHA phytotoxicity rating: 20
[9]; 63 g ai/ha
  SETVI phytotoxicity rating: 20
[9]; 250 g ai/ha
  SETVI phytotoxicity rating: 30
[10]; 63 g ai/ha
  phytotoxicity rating ECHCG: 0
[10]; 250 g ai/ha
  phytotoxicity rating ECHCG: 0
[11]; 63 g ai/ha
  phytotoxicity rating DIGSA: 0
[11]; 250 g ai/ha
  phytotoxicity rating DIGSA: 40
[12]; 63 g ai/ha
  phytotoxicity rating ABUTH: 20
[12]; 250 g ai/ha
  phytotoxicity rating ABUTH: 50
[13]; 63 g ai/ha
  phytotoxicity rating CASOB: 0
[13]; 250 g ai/ha
  phytotoxicity rating CASOB: 0
[14]; 63 g ai/ha
  phytotoxicity rating IPOHE: 0
[14]; 250 g ai/ha
  phytotoxicity rating IPOHE: 0
[15]; 63 g ai/ha
  phytotoxicity rating CHEAL: 70
[15]; 250 g ai/ha
  phytotoxicity rating CHEAL: 90
[16]; 63 g ai/ha
  phytotoxicity rating SORHA: 10
[16]; 250 g ai/ha
  phytotoxicity rating SORHA: 0
[17]; 63 g ai/ha
  phytotoxicity rating SETVI: 30
[17]; 250 g ai/ha
  phytotoxicity rating SETVI: 90
[18]; 63 g ai/ha
  RICE phytotoxicity rating (crop damage): 0
[18]; 250 g ai/ha
  RICE phytotoxicity rating (crop damage): 10
[19]; 63 g ai/ha
  CORN phytotoxicity rating (crop damage): 5
[19]; 250 g ai/ha
  CORN phytotoxicity rating (crop damage): 5
[20]; 63 g ai/ha
  phytotoxicity rating AMARE: 100
[20]; 250 g ai/ha
  phytotoxicity rating AMARE: 100
[21]; 63 g ai/ha
  phytotoxicity rating RICE (crop damage): 0
[21]; 250 g ai/ha
  phytotoxicity rating RICE (crop damage): 20
[22]; 63 g ai/ha
  phytotoxicity rating CORN (crop damage): 0
[22]; 250 g ai/ha
  phytotoxicity rating CORN (crop damage): 0
